Reference: ChEMBL document CHEMBL1138135, “L-dopa- and dopamine-(R)-alpha-lipoic acid conjugates as multifunctional codrugs with antioxidant properties” (J Med Chem, 2006)
Converted amounts (≈) assume the structure as drawn. The source made the active and inactive calls. The rule behind the calls is not given here.

Key:
[1] = Partition co-efficient, log P of the compound; type: physicochemical; conditions: octanol/water
[2] = Solubility in water; type: physicochemical
[3] = Aqueous solubility at pH 1.3; type: physicochemical; conditions: buffer
[4] = Aqueous solubility at pH 7.4; type: physicochemical; conditions: buffer
Rattus norvegicus [5] = assay: Decrease in plasmatic superoxide dismutase activity after 1 hr and 3 hrs of administration of 132.64 mg/kg to Wistar rats; type: functional, organism-based; set-up: dose 132.64 mg/kg
[6] = Aqueous solubility at pH 5.0; type: physicochemical; conditions: buffer
Rattus norvegicus [7] = assay: Increase in plasmatic Glutathione peroxidase activity after 3 hrs of administration of 132.64 mg/kg to Wistar rats; type: functional, organism-based; set-up: dose 132.64 mg/kg
Rattus norvegicus [8] = assay: Increase in plasmatic Glutathione peroxidase activity after 1 hr of administration of 132.64 mg/kg to Wistar rats; type: functional, organism-based; set-up: dose 132.64 mg/kg
Rattus norvegicus [9] = assay: Decrease in grooming behavior of Wistar rats after 2 hrs of administration of 132.64 mg/kg; type: functional, organism-based; set-up: dose 132.64 mg/kg
Rattus norvegicus [10] = assay: Increase in plasmatic Glutathione peroxidase activity after 1 hr of administration of 160.54 mg/kg to Wistar rats; type: functional, organism-based; set-up: dose 160.54 mg/kg
Rattus norvegicus [11] = assay: Decrease in plasmatic superoxide dismutase activity after 1 hr and 3 hrs of administration of 160.54 mg/kg to Wistar rats; type: functional, organism-based; set-up: dose 160.54 mg/kg
Rattus norvegicus [12] = assay: Decrease in grooming behavior of Wistar rats after 1 hr of administration of 160.54 mg/kg; type: functional, organism-based; set-up: dose 160.54 mg/kg

O=C(CCCC[C@@H]1CCSS1)NCCc1ccc(O)c(O)c1
logP [1]: 3.4
solubility [2]: 0.36 µg/mL (≈ 1.05 µM)
solubility [3]: 0.87 µg/mL (≈ 2.55 µM)
solubility [4]: 1.1 µg/mL (≈ 3.22 µM)

COC(=O)[C@H](Cc1ccc(O)c(O)c1)NC(=O)CCCC[C@@H]1CCSS1
Activity (Rattus norvegicus [5]): Active
logP [1]: 2.16
solubility [2]: 12 µg/mL (≈ 30 µM)
solubility [4]: 13 µg/mL (≈ 32.5 µM)
solubility [6]: 11 µg/mL (≈ 27.5 µM)
Activity (Rattus norvegicus [7]): Active
Activity (Rattus norvegicus [8]): Active
Activity (Rattus norvegicus [9]): Active

CC(=O)Oc1ccc(CCNC(=O)CCCC[C@@H]2CCSS2)cc1OC(C)=O
logP [1]: 3.65
solubility [2]: 49 µg/mL (≈ 115 µM)
solubility [3]: 0.47 µg/mL (≈ 1.1 µM)
solubility [4]: 52 µg/mL (≈ 122 µM)
solubility [6]: 47 µg/mL (≈ 110 µM)

COC(=O)[C@H](Cc1ccc(OC(C)=O)c(OC(C)=O)c1)NC(=O)CCCC[C@@H]1CCSS1
logP [1]: 2.77
solubility [2]: 233 µg/mL (≈ 482 µM)
solubility [3]: 39 µg/mL (≈ 80.6 µM)
solubility [4]: 38 µg/mL (≈ 78.6 µM)
solubility [6]: 24 µg/mL (≈ 49.6 µM)
Activity (Rattus norvegicus [10]): Active
Activity (Rattus norvegicus [11]): Active
Activity (Rattus norvegicus [12]): Active
